Columns and labels:
Details in all cases: human; call rule not given here
Hepatotoxicity [1] = test: FDA HLAED, gamma-glutamyl transferase (GGT) increase
Hepatotoxicity [2] = test: FDA HLAED, lactate dehydrogenase (LDH) increase
Hepatotoxicity [3] = test: FDA HLAED, alkaline phosphatase increase
Hepatotoxicity [4] = test: FDA HLAED, serum glutamic oxaloacetic transaminase (SGOT) increase
Hepatotoxicity [5] = test: FDA HLAED, serum glutamic pyruvic transaminase (SGPT) increase
Hepatotoxicity [6] = test: FDA HLAED, liver enzyme composite activity
Throughout, for GGT Increase - Index Value: reference of the scale not given here.
Throughout, for LDH Increase - Index Value: reference of the scale not given here.

SMILES | GGT Increase - Activity Score (Hepatotoxicity [1]) | GGT Increase - Index Value (Hepatotoxicity [1]) | GGT Increase - Number of Reports (Hepatotoxicity [1]) | LDH Increase - Activity Score (Hepatotoxicity [2]) | LDH Increase - Index Value (Hepatotoxicity [2]) | LDH Increase - Number of Reports (Hepatotoxicity [2]) | Alkaline Phosphatase Increase - Activity Score (Hepatotoxicity [3]) | Alkaline Phosphatase Increase - Index Value (Hepatotoxicity [3]) | Alkaline Phosphatase Increase - Number of Reports (Hepatotoxicity [3]) | SGOT Increase - Activity Score (Hepatotoxicity [4]) | SGOT Increase - Index Value (Hepatotoxicity [4]) | SGOT Increase - Number of Reports (Hepatotoxicity [4]) | SGPT Increase - Activity Score (Hepatotoxicity [5]) | SGPT Increase - Index Value (Hepatotoxicity [5]) | SGPT Increase - Number of Reports (Hepatotoxicity [5]) | Composite Activity - Active (Hepatotoxicity [6]) | Composite Activity - Marginal (Hepatotoxicity [6]) | Composite Activity - Score (Hepatotoxicity [6]) | other results
CC[N+](C)(C)Cc1ccccc1Br.Cc1ccc(S(=O)(=O)[O-])cc1 [BRETYLIUM TOSYLATE] | Inactive | 0 | < 4 | Inactive | 0 | < 4 | Inactive | 0 | < 4 | Inactive | 0 | < 4 | Inactive | 0 | < 4 | 0 | 0 | Inactive | –
Brc1c(NC2=NCCN2)ccc2nccnc12 [BRIMONIDINE] | Inactive | 0 | < 4 | Inactive | 0 | < 4 | Inactive | 0 | < 4 | Inactive | 1.1 | < 4 | Inactive | 0 | < 4 | – | – | – | Composite Activity - Active (Hepatotoxicity [6]; Liver): 0; Composite Activity - Marginal (Hepatotoxicity [6]; Liver): 0; Composite Activity - Score (Hepatotoxicity [6]; Liver): Inactive
CC(C)C[C@H]1C(=O)N2CCC[C@H]2[C@]2(O)O[C@](NC(=O)[C@@H]3C=C4c5cccc6[nH]c(Br)c(c56)C[C@H]4N(C)C3)(C(C)C)C(=O)N12 [BROMOCRIPTINE] | Inactive | 0 | < 4 | Inactive | 0 | < 4 | Inactive | 0 | < 4 | Inactive | 0 | < 4 | Inactive | 0 | < 4 | 0 | 0 | Inactive | –
CCCC1O[C@@H]2C[C@H]3[C@@H]4CCC5=CC(=O)C=C[C@]5(C)[C@H]4[C@@H](O)C[C@]3(C)[C@]2(C(=O)CO)O1 (stereo partly specified) [BUDESONIDE] | Inactive | 0 | < 4 | Inactive | 0 | < 4 | Inactive | 0.2 | < 4 | Inactive | 0 | < 4 | Inactive | 0 | < 4 | 0 | 0 | Inactive | –
CCCCNc1cc(C(=O)O)cc(S(N)(=O)=O)c1Oc1ccccc1 [BUMETANIDE] | Inactive | 0 | < 4 | Inactive | 0 | < 4 | Inactive | 0 | < 4 | Inactive | 0 | < 4 | Inactive | 0 | < 4 | 0 | 0 | Inactive | –
CO[C@]12CC[C@@]3(C[C@@H]1[C@](C)(O)C(C)(C)C)[C@H]1Cc4ccc(O)c5c4[C@@]3(CCN1CC1CC1)[C@H]2O5 [BUPRENORPHINE] | Inactive | 0 | < 4 | Inactive | 0 | < 4 | Inactive | 0 | < 4 | Inactive | 0 | < 4 | Inactive | 0 | < 4 | 0 | 0 | Inactive | –
CC(NC(C)(C)C)C(=O)c1cccc(Cl)c1 (stereo unspecified) [BUPROPION] | Inactive | 0 | < 4 | Inactive | 0 | < 4 | Inactive | 0 | < 4 | Inactive | 0 | < 4 | Inactive | 0 | < 4 | 0 | 0 | Inactive | –
O=C1CC2(CCCC2)CC(=O)N1CCCCN1CCN(c2ncccn2)CC1 [BUSPIRONE] | Inactive | 0.6 | < 4 | Inactive | 0.4 | < 4 | Inactive | 0.9 | >= 4 | Inactive | 2.4 | >= 4 | Marginally Active | 3.1 | >= 4 | 0 | 1 | Inactive | –
CN(Cc1ccc(C(C)(C)C)cc1)Cc1cccc2ccccc12 [BUTENAFINE] | Inactive | 0 | < 4 | Inactive | 0 | < 4 | Inactive | 0 | < 4 | Inactive | 0 | < 4 | Inactive | 0 | < 4 | 0 | 0 | Inactive | –
Clc1ccc(CCC(Cn2ccnc2)Sc2c(Cl)cccc2Cl)cc1 (stereo unspecified) [BUTOCONAZOLE] | Inactive | 0 | < 4 | Inactive | 0 | < 4 | Inactive | 0.2 | < 4 | Inactive | 0 | < 4 | Inactive | 0.2 | < 4 | 0 | 0 | Inactive | –
Oc1ccc2c(c1)[C@@]13CCCC[C@@]1(O)[C@@H](C2)N(CC1CCC1)CC3 [BUTORPHANOL] | Inactive | 0 | < 4 | Inactive | 0 | < 4 | Inactive | 0 | < 4 | Inactive | 0 | < 4 | Inactive | 0 | < 4 | 0 | 0 | Inactive | –
C=CCN1C[C@H](C(=O)N(CCCN(C)C)C(=O)NCC)C[C@@H]2c3cccc4[nH]cc(c34)C[C@H]21 [CABERGOLINE] | Inactive | 0 | < 4 | Inactive | 0 | < 4 | Inactive | 0 | < 4 | Inactive | 0 | < 4 | Inactive | 0 | < 4 | 0 | 0 | Inactive | –

Source: ChEMBL document CHEMBL1697781, “Assessment of the health effects of chemicals in humans: II. Construction of an adverse effects database for QSAR modeling” (Curr Drug Discov Technol, 2004)
